Biological target: T1, MMP9 mediated gelatinase activity (Rattus norvegicus, UniProt P50282)
T1 construct: from tissue; host or cells: frozen liver sections, female Lewis rats
Experiment: In situ zymography of gelatinase activity in livers of SCW-induced rats dosed with compound
Type: in vivo
Conditions: for Intensity (RLU × 10^6), Mean / Intensity (RLU × 10^6), Rat 1 / Intensity (RLU × 10^6), Rat 2 / Intensity (RLU × 10^6), Rat 3: Day 25-28, liver
Description: In situ zymography provides an alternative approach to assess active MMP9 in tissues (Frederiks). Tissue sections are overlain with fluorescene-conjugated gelatin wherein the conjugation is sufficiently dense to cause the fluorescene to be dye-quenched (DQ). Proteolytic degradation of the DQ-gelatin releases the fluorescene from the quenching effect giving rise to bright green fluorescence at the site of degradation. Because in situ zymography requires the use of frozen sections, calcified tissues are problematic. However, an additional feature of the SCW arthritis model is the development of hepatic granulomatous disease (J Immunol; 1986; 137:2199-2209), and MMP9 reportedly plays a role in macrophage recruitment in the granulomas response to mycobacteria (Infect Immun; 2006; 74:6135-6144). Consequently, granulomatous livers from SCW-treated rats were assessed for active MMP9 by in situ zymography.
As described above, Female Lewis (LEW/N) rats, 5-6 weeks of age (80-100 g) were injected (i.p.) with saline or SCW PG-PS. On day 28, when the granulomatous response was well established, animals were sacrificed and livers were frozen in OCT cryo-sectioning medium and […] sections were cut on a Cryome HM 500 M cryotome and mounted on glass microscope slides. Sections were air dried briefly. MMP9 was confirmed as the source of the gelatinase activity in the liver by treating liver sections with monoclonal antibodies directed against the active site of the two major gelatinases MMP9 and MMP2. Liver sections overlain with 50 μL of 100 μg/mL neutralizing mouse monoclonal antibodies directed against MMP9 (Calbiochem, clone 6-6B), or MMP2 (Millipore, clone CA-4001), or with PBS for 1 hr at room temperature. Tissues were rinsed once with PBS, blotted, and briefly air dried and then overlain with DQ-gelatin (Invitrogen) dissolved to 1 mg/mL in deionized water and then diluted 1:10 in 1% wt/vol low gelling point agarose type VII (Sigma) in PBS. The sections were covered with coverslips, incubated in the dark at room temperature for 20 min, and imaged on an Olympus IX80 inverted microscope fitted with fluorescence optics, using SlideBook™ imaging software (Intelligent Imaging Innovations, Inc., Philadelphia, Pa.; version 5.0). Fluorescence intensity was determined (Table 8). When compared to a saline-treated rat, gelatinase activity was abundantly expressed in granulomatous liver sections obtained from a rat with SCW arthritis.
Next, liver in situ zymography was used to assess the relative presence of active MMP9 in rats dosed with vehicle vs. Compound-α. Female Lewis (LEW/N) rats, 5-6 weeks of age (80-100 g) were injected (i.p.) with saline or SCW PG-PS. Commencing on day 25, randomized groups of rats (n=3 rats/group) received vehicle or 20 or 50 mg/kg Compound-α BID by oral gavage. Vehicle consisted of an aqueous mixture containing 2% (v:v) N-methylpyrrolidone, 5% (v:v) glycerine, and 20% (w:v) captisol. Treatment continued daily through the morning of day 28. Four hrs after the AM dose on day 28, rats were sacrificed and livers assessed for active MMP9 by in situ zymography (Table 9). Gelatinase activity was increased markedly in SCW-induced rats, but activity was reduced by approximately 80% in animals treated with 50 mg/kg Compound-α.

T1 sequence (P50282 108-708): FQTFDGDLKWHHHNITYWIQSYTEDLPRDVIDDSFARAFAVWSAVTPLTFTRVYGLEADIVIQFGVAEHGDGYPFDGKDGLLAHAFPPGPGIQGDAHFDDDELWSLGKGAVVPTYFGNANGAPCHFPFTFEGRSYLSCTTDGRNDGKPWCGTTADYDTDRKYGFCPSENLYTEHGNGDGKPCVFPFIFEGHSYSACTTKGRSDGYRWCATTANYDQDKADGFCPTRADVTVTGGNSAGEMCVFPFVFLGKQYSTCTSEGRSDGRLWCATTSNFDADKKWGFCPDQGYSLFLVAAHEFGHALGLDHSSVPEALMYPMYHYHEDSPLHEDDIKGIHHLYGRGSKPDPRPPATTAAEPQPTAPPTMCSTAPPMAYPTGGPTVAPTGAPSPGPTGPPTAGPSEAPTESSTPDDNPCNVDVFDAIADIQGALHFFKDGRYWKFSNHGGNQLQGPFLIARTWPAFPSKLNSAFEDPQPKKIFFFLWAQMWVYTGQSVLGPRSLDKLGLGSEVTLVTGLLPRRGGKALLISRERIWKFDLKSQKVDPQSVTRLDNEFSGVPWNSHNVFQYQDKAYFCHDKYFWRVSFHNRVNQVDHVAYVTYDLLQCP

Intensity (RLU × 10^6), Mean (20 mg/kg BID oral): 55.2 RLU × 10^6 | Intensity (RLU × 10^6), Rat 1 (20 mg/kg BID oral): 43.0 RLU × 10^6 | Intensity (RLU × 10^6), Rat 2 (20 mg/kg BID oral): 69.0 RLU × 10^6 | Intensity (RLU × 10^6), Rat 3 (20 mg/kg BID oral): 53.7 RLU × 10^6 | Reduction of liver gelatinase activity (50 mg/kg BID oral, Day 25-28): approximately 80% | Intensity (RLU × 10^6), Mean (50 mg/kg BID oral): 11.1 RLU × 10^6 | Intensity (RLU × 10^6), Rat 1 (50 mg/kg BID oral): 3.2 RLU × 10^6 | Intensity (RLU × 10^6), Rat 2 (50 mg/kg BID oral): 25.6 RLU × 10^6 | Intensity (RLU × 10^6), Rat 3 (50 mg/kg BID oral): 4.5 RLU × 10^6
SMILES: Cc1nc(C)c(-c2csc(Nc3cc(S(N)(=O)=O)ccc3OC(C)C)n2)s1 [Compound-α, 3-(2′,4′-Dimethyl-[4,5′]bithiazolyl-2-ylamino)-4-isopropoxy-benzenesulfonamide.HBr]
